IC50 data for 9 compounds are collected here from patent publication US20260022143A1, “Cyclic Peptide Inhibitors of IL-23” (JANSSEN PHARMACEUTICA NV, priority 2022, published 2026).

Molecules are shown by their SMILES. Starred links: 1 amine or outer side, 2 acyl side, 3 side chain; linkers in the order of their positions; H or OH if unused. Positions of bridges follow the written chain, without caps; N, C: chain ends. Non-standard residues stand in square brackets, D forms with d. Residues, ends and D or L forms follow the SMILES beside them. Groups on a side chain read outwards from the residue. *: point of attachment. X78 = N=C(N)NCCc1cn(-c2ccc(C[C@H](N[*:1])C(=O)[*:2])cc2)nn1; Me3N+(CH2)2O(CH2)2O(CH2)2CO = C[N+](C)(C)CCOCCOCCC(=O)*; CH2CH2OCH2CH2OCH2CH2NMe3+ = C[N+](C)(C)CCOCCOCC*; Trp(7-Me) = Cc1cccc2c(C[C@H](N)C(=O)O)c[nH]c12; Pentanoyl(5-guanidino) = NC(N)=NCCCCC(=O)*; X71 = C[N+](C)(C)CC(F)(F)C(F)(F)C(F)(F)C*; γGlu = O=C(O)[C@H](CCC(=O)[*:2])N[*:1]; 2Nal = N[C@@H](Cc1ccc2ccccc2c1)C(=O)O; 3Pal = N[C@@H](Cc1cccnc1)C(=O)O; Lys(Me) = CNCCCC[C@H](N)C(=O)O; NMeK = CN[C@@H](CCCCN)C(=O)O; Pen = CC(C)(S)[C@H](N)C(=O)O; Lauroyl = CCCCCCCCCCCC(=O)*; Nle = CCCC[C@H](N)C(=O)O; Thp = NC1(C(=O)O)CCOCC1; X3 = C[N+](C)(C)CCCCC*; AEEA = NCCOCCOCC(=O)O; Sar = CNCC(=O)O

One experiment deals with T1, IL-23R (Homo sapiens, UniProt Q5VWK5).
T1 construct: host or cells: HEK293
T1 sequence (Q5VWK5 24-629): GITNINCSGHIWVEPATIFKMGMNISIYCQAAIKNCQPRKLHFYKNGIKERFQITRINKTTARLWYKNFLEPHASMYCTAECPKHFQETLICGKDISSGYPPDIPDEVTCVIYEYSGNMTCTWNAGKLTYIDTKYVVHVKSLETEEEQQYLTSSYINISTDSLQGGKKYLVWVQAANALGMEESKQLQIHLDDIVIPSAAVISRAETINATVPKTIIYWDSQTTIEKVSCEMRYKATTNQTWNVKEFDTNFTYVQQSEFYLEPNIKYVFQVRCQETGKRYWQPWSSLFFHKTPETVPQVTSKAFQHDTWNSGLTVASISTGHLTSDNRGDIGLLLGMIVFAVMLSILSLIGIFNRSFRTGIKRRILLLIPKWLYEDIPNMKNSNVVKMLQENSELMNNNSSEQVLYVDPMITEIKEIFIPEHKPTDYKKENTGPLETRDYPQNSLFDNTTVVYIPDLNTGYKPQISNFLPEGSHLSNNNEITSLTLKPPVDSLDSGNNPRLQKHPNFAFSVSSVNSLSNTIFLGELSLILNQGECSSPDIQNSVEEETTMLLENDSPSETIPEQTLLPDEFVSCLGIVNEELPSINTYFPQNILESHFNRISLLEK
Briefly: IL23R Reporter Assay. In kind it is cell-based. The conditions noted are these: HEK293 cells containing IL-23R, IL-12RP1 and STAT-inducible firefly luciferase reporter; 10 ng/mL IL-23 (EC90); 5 h at 37° C.; read-out: IL23R Reporter Assay. (A reporter such as luciferase makes a cellular process visible.)
On to `CCCCCCCCCCCC(=O)N[C@@H](CCC(=O)NCCOCCOCC(=O)NCCOCCOCC(=O)NCCCC[C@@H](C(N)=O)N(C)C(=O)[C@H](Cc1cccnc1)NC(=O)[C@H](CC(N)=O)NC(=O)[C@H](CCCCN(C)C(C)=O)NC(=O)C1(NC(=O)[C@H](Cc2ccc3ccccc3c2)NC(=O)[C@H](Cc2ccc(OCCCCC[N+](C)(C)C)cc2)NC(=O)[C@H]2NC(=O)[C@H](CCCCN(C)C(C)=O)NC(=O)[C@H](Cc3c[nH]c4c(C)cccc34)NC(=O)[C@H]([C@@H](C)O)NC(=O)[C@H](CC(=O)N(C)C)NC(=O)[C@@H](NC(=O)CCOCCOCC[N+](C)(C)C)C(C)(C)SSC2(C)C)CCOCC1)C(=O)O` [compound 314, cPEG3aCO-Pen(3)-N(N(Me)2)-T-7MeW-K(NMeAC)-Pen(3)-TMAPF-2Nal-THP-K(NMeaC)-N-3Pya-NMeK(PEG2PEG2gEC12)-CONH2] ({Me3N+(CH2)2O(CH2)2O(CH2)2CO}-[Pen]D(NMe2)T[Trp(7-Me)][Lys(Me)](Ac)[Pen]Y(X3)[2Nal][Thp][Lys(Me)](Ac)N[3Pal][NMeK]([AEEA-AEEA-γGlu-Lauroyl])-NH2; disulfide 1-6), for which the IC50 stood at 7 nM.

`CCCCCCCCCCCC(=O)N[C@@H](CCC(=O)NCCOCCOCC(=O)NCCOCCOCC(=O)NCCCC[C@H](NC(=O)C1(NC(=O)[C@H](Cc2ccc3ccccc3c2)NC(=O)[C@H](Cc2ccc(OCCCCC[N+](C)(C)C)cc2)NC(=O)[C@H]2NC(=O)[C@H](CCCCNC(C)=O)NC(=O)[C@H](Cc3c[nH]c4c(C)cccc34)NC(=O)[C@H]([C@@H](C)O)NC(=O)[C@H](CC(=O)N(C)C)NC(=O)[C@@H](NC(=O)CCOCCOCC[N+](C)(C)C)C(C)(C)SSC2(C)C)CCOCC1)C(=O)N[C@@H](CC(N)=O)C(=O)N[C@@H](Cc1cccnc1)C(=O)N(C)[C@@H](CCCCNC(=O)COCCOCCNC(=O)COCCOCCNC(=O)CC[C@H](NC(=O)CCCCCCCCCCC)C(=O)O)C(N)=O)C(=O)O` [compound 353, cPEG3aCO-Pen(3)-N(N(Me)2)-T-7MeW-K(Ac)-Pen(3)-TMAPF-2Nal-THP-K(PEG2PEG2gEC12)-N-3Pya-NMeK(PEG2PEG2gEC12)-CONH2] ({Me3N+(CH2)2O(CH2)2O(CH2)2CO}-[Pen]D(NMe2)T[Trp(7-Me)]K(Ac)[Pen]Y(X3)[2Nal][Thp]K([AEEA-AEEA-γGlu-Lauroyl])N[3Pal][NMeK]([AEEA-AEEA-γGlu-Lauroyl])-NH2; disulfide 1-6): the IC50 was found to be 140 nM.

Turning to `CCCCCCCCCCCC(=O)N[C@@H](CCC(=O)NCCOCCOCC(=O)NCCOCCOCC(=O)NCCOCCOCC(=O)NCCCC[C@H](NC(=O)C1(NC(=O)[C@H](Cc2ccc3ccccc3c2)NC(=O)[C@H](Cc2ccc(OCCCCC[N+](C)(C)C)cc2)NC(=O)[C@H]2NC(=O)[C@H](CCCCNC(C)=O)NC(=O)[C@H](Cc3c[nH]c4c(C)cccc34)NC(=O)[C@H]([C@@H](C)O)NC(=O)[C@H](CC(=O)N(C)C)NC(=O)[C@@H](NC(=O)CCOCCOCC[N+](C)(C)C)C(C)(C)SSC2(C)C)CCOCC1)C(=O)N[C@@H](CC(N)=O)C(=O)N[C@@H](Cc1cccnc1)C(=O)N(C)[C@@H](CCCCNC(=O)COCCOCCNC(=O)COCCOCCNC(=O)COCCOCCNC(=O)CC[C@H](NC(=O)CCCCCCCCCCC)C(=O)O)C(N)=O)C(=O)O` [compound 373, cPEG3aCO-Pen(3)-N(N(Me)2)-T-7MeW-K(Ac)-Pen(3)-TMAPF-2Nal-THP-K(PEG2PEG2PEG2gEC12))-N-3Pya-NMeK(PEG2PEG2PEG2gEC12)-CONH2] ({Me3N+(CH2)2O(CH2)2O(CH2)2CO}-[Pen]D(NMe2)T[Trp(7-Me)]K(Ac)[Pen]Y(X3)[2Nal][Thp]K([AEEA-AEEA-AEEA-γGlu-Lauroyl])N[3Pal][NMeK]([AEEA-AEEA-AEEA-γGlu-Lauroyl])-NH2; disulfide 1-6), the IC50 came to 87 nM.

Regarding `CCCCCCCCCCCC(=O)N[C@@H](CCC(=O)NCCOCCOCC(=O)NCCOCCOCC(=O)NCCCC[C@@H]1NC(=O)[C@@H](NC(=O)CCOCCOCC[N+](C)(C)C)C(C)(C)SSC(C)(C)[C@@H](C(=O)N[C@@H](Cc2ccc(OCCCCC[N+](C)(C)C)cc2)C(=O)N[C@@H](Cc2ccc3ccccc3c2)C(=O)NC2(C(=O)N[C@@H](CCCCN(C)C(C)=O)C(=O)N[C@@H](CC(N)=O)C(=O)N[C@@H](Cc3cccnc3)C(=O)N(C)CC(=O)N(C)C)CCOCC2)NC(=O)[C@H](CCCCN(C)C(C)=O)NC(=O)[C@H](Cc2c[nH]c3c(C)cccc23)NC(=O)[C@H]([C@@H](C)O)NC1=O)C(=O)O` [compound 387, cPEG3aCO-Pen(3)-K(PEG2PEG2gEC12)-T-7MeW-K(NMeAc)-Pen(3)-TMAPF-2Nal-THP-K(NMeAc)-N-3Pya-Sar-CON(Me)2] ({Me3N+(CH2)2O(CH2)2O(CH2)2CO}-[Pen]K([AEEA-AEEA-γGlu-Lauroyl])T[Trp(7-Me)][Lys(Me)](Ac)[Pen]Y(X3)[2Nal][Thp][Lys(Me)](Ac)N[3Pal][Sar]-NMe2; disulfide 1-6), the IC50 amounted to 12 nM.

For `CC(=O)N(C)CCCC[C@@H]1NC(=O)[C@H](Cc2c[nH]c3c(C)cccc23)NC(=O)[C@H]([C@@H](C)O)NC(=O)[C@H](CC(=O)N(C)C)NC(=O)[C@@H](NC(=O)CCCCNC(=N)N)C(C)(C)SSC(C)(C)[C@@H](C(=O)N[C@@H](Cc2ccc(OCCCCC[N+](C)(C)C)cc2)C(=O)N[C@@H](Cc2ccc3ccccc3c2)C(=O)NC2(C(=O)N[C@@H](CCCCN(C)C(C)=O)C(=O)N[C@@H](CC(N)=O)C(=O)N[C@@H](Cc3cccnc3)C(=O)N(C)CC(=O)N(C)C)CCOCC2)NC1=O` [compound 403, 4cpgCO-Pen(3)-N(N(Me)2)-T-7MeW-K(NMeAc)-Pen(3)-TMAPF-2Nal-THP-K(NMeAc)-N-3Pya-Sar-CON(Me)2] ({Pentanoyl(5-guanidino)}-[Pen]D(NMe2)T[Trp(7-Me)][Lys(Me)](Ac)[Pen]Y(X3)[2Nal][Thp][Lys(Me)](Ac)N[3Pal][Sar]-NMe2; disulfide 1-6), the IC50 was 4.5 nM.

In the case of `CC(=O)NCCCC[C@@H]1NC(=O)[C@H](Cc2c[nH]c3c(-c4cccc(NC(C)=O)c4)cccc23)NC(=O)[C@H]([C@@H](C)O)NC(=O)[C@H](CC(N)=O)NC(=O)[C@@H](NC(=O)CCOCCOCC[N+](C)(C)C)C(C)(C)SSC(C)(C)[C@@H](C(=O)N[C@@H](Cc2ccc(OCCNC(=N)N)cc2)C(=O)N[C@@H](Cc2ccc3ccccc3c2)C(=O)NC2(C(=O)N[C@@H](CCCCN(C)C(C)=O)C(=O)N[C@@H](CC(N)=O)C(=O)N[C@@H](Cc3cncc(C)c3)C(=O)N(C)CC(N)=O)CCOCC2)NC1=O` [compound 481, cPEG3aCO-Pen(3)-N-T-7(3NAcPh)W-K(Ac)-Pen(3)-AEF(G)-2Nal-THP-K(NMeAc)-N-5MePyridinAla-Sar-CONH2], the IC50 came to 3.5 nM.

`CCCC[C@H](NC(=O)C1(NC(=O)[C@H](Cc2ccc3ccccc3c2)NC(=O)[C@H](Cc2ccc(OCCOCCOCC[N+](C)(C)C)cc2)NC(=O)[C@H]2NC(=O)[C@H](CCCCN(C)C(C)=O)NC(=O)[C@H](Cc3c[nH]c4c(C)cccc34)NC(=O)[C@H]([C@@H](C)O)NC(=O)[C@H](CC(=O)N(C)C)NC(=O)[C@@H](NC(=O)CCOCCOCC[N+](C)(C)C)C(C)(C)SSC2(C)C)CCOCC1)C(=O)N[C@@H](CC(N)=O)C(=O)N[C@@H](Cc1cccnc1)C(=O)N(C)CC(=O)N(C)C` [compound 520, cPEG3aCO-Pen(3)-N(N(Me)2)-T-7MeW-K(NMeAc)-Pen(3)-APEG3F-2Nal-THP-Nle-N-3Pya-Sar-CON(Me)2] ({Me3N+(CH2)2O(CH2)2O(CH2)2CO}-[Pen]D(NMe2)T[Trp(7-Me)][Lys(Me)](Ac)[Pen]Y(CH2CH2OCH2CH2OCH2CH2NMe3+)[2Nal][Thp][Nle]N[3Pal][Sar]-NMe2; disulfide 1-6): the IC50 worked out at 1.4 nM.

With `CC(=O)NCCCC[C@@H]1NC(=O)[C@H](Cc2c[nH]c3c(C)cccc23)NC(=O)[C@H]([C@@H](C)O)NC(=O)[C@H](CC(N)=O)NC(=O)[C@@H](NC(=O)CCOCCOCC[N+](C)(C)C)C(C)(C)SSC(C)(C)[C@@H](C(=O)N[C@@H](Cc2ccc(-n3cc(CCNC(=N)N)nn3)cc2)C(=O)N[C@@H](Cc2ccc3ccccc3c2)C(=O)NC2(C(=O)N[C@@H](CCCCNC(C)=O)C(=O)N[C@@H](CC(N)=O)C(=O)N[C@@H](Cc3cccnc3)C(=O)N(C)CC(N)=O)CCOCC2)NC1=O` [compound 521, cPEG3aCO-Pen(3)-N-T-7MeW-K(Ac)-Pen(3)-F(4TzlG2)-2Nal-THP-K(Ac)-N-3Pya-Sar-CONH2] ({Me3N+(CH2)2O(CH2)2O(CH2)2CO}-[Pen]NT[Trp(7-Me)]K(Ac)[Pen][X78][2Nal][Thp]K(Ac)N[3Pal][Sar]-NH2; disulfide 1-6), the IC50 worked out at 1.4 nM.

Still in this experiment, the particulars now being: IL23R Reporter Assay (micromolar), HEK293 cells containing IL-23R, IL-12RP1 and STAT-inducible firefly luciferase reporter; 10 ng/mL IL-23 (EC90); 5 h at 37° C.
Compound `CC(=O)N(C)CCCC[C@@H]1NC(=O)[C@H](Cc2c[nH]c3c(C)cccc23)NC(=O)[C@H]([C@@H](C)O)NC(=O)[C@H](CC(=O)N(C)C)NC(=O)[C@@H](NC(=O)CCOCCOCC[N+](C)(C)C)C(C)(C)SSC(C)(C)[C@@H](C(=O)N[C@@H](Cc2ccc(OCC(F)(F)C(F)(F)C(F)(F)C[N+](C)(C)C)cc2)C(=O)N[C@@H](Cc2ccc3ccccc3c2)C(=O)NC2(C(=O)N[C@@H](CCCCN(C)C(C)=O)C(=O)N[C@@H](CC(N)=O)C(=O)N[C@@H](Cc3cccnc3)C(=O)N(C)CC(=O)N(C)C)CCOCC2)NC1=O` [compound 338, cPEG3aCO-Pen(3)-N(N(Me)2)-T-7MeW-K(NMeAc)-Pen(3)-hFTMAPF-2Nal-THP-K(NMeAc)-N-3Pya-Sar-CON(Me)2] ({Me3N+(CH2)2O(CH2)2O(CH2)2CO}-[Pen]D(NMe2)T[Trp(7-Me)][Lys(Me)](Ac)[Pen]Y(X71)[2Nal][Thp][Lys(Me)](Ac)N[3Pal][Sar]-NMe2; disulfide 1-6) registered an IC50 of 1.6 nM.
